What is called TGI is how far tumour growth fell short of that in controls.

Consider 1 molecule from US12121522B2, “Methods of treating cancer with an mTOR inhibitor” (Revolution Medicines, Inc., priority 2022, dated 2024).

The subject of one series is ctDNA (mean VAF). The series is described as follows: ctDNA molecular response (Guardant Health algorithm). It counts as in vivo, human. Here is the method: The mean±SEM of fractional change in mean VAF from C1D1 to C3D1 was determined by the Guardant Health Molecular Response Algorithm. […] Change in ctDNA is presented as mean±SEM of % change in mean VAF from C1D1 to C3D1. […] The results presented in FIGS. 8 and 9, supported by preclinical data, indicate that the dose range of 6 mg to 12 mg represents a “steep” dose-exposure-response relationship.

The test system of series [1] is MCF7 PIK3CA^E545K breast cancer CDX. The series is described as follows: MCF7 breast cancer xenograft. The series is classed as in vivo, mouse. An excerpt:
FIGS. 1A-1B show Dose-Dependent Antitumor Effects of Repeated RMC-5552 Weekly Treatment in the MCF7 Xenograft Model of Human Estrogen Receptor Positive Breast Cancer in Athymic Nude Mice. Abbreviations: ANOVA=analysis of variance; IP=intraperitoneal; QW=once weekly. […] Each animal represented as a separate bar. Number of animals per group=12. Numbers indicate number of regressions at respective doses (defined as >10% reduction in tumor volume from starting volume) in each group.
(§1) The antitumor activity of RMC-5552 as a single agent against tumors predicted to be dependent on the mTOR pathway and/or bearing specific PI3K/mTOR pathway-activating mutations (i.e., PIK3CA^mut, phosphatase and tensin homolog [PTEN^LOF], or co-mutation of both and tuberous sclerosis complex [TSC^LOF]) was evaluated in selected CDX and/or PDX models
(§2) Table 1. RMC-5552 was administered IP once weekly at 1, 3, 10, and 30 mg/kg. In the breast cancer MCF7 PIK3CA^[…] model, a higher dose of 50 mg/kg once weekly and an alternate dose regimen of 30 mg/kg every 10 days were also evaluated.

The test system of series [2] is BLC1521 TSC1 protein-negative bladder cancer. The series is described as follows: BLC1521 bladder cancer xenograft. It counts as in vivo, mouse. Here is the method:
as §1, §2

Another series concerns 4EBP3 mRNA expression. The series is described as follows: 4EBP3 mRNA expression in whole blood. It counts as in vivo, human. Particulars: cohorts treated with at least 3.0 mg; sustained over a 6-hour period. An excerpt:
Whole blood was collected from all subjects in dose escalation at CID1 prior to dosing, and 6 timepoints after EOI. In each sample, 4EBP3 mRNA expression was quantified as a pharmacodynamic indicator of mTORC1 inhibition.

For series [3], the system named is HCC-1954 PIK3CA^H1047R breast cancer CDX. Description: HCC-1954 breast cancer xenograft. It counts as in vivo, mouse. Particulars: two values. Here is the method: as §1, §2
Series [4] deals with BXF 2211 TSC1^-/- bladder cancer. The series is described as follows: BXF 2211 bladder cancer xenograft. It counts as in vivo, mouse. Here is the method:
as §1, §2

Another series is described as follows: Mouse plasma exposure. The series is classed as in vivo. The settings on record: fu 0.001-0.004.

Values joined by “and” are separate entries in the source; they are usually repeats but may differ in a detail not shown here. Equal values may be shown once.

`CO[C@H]1C[C@@H]2CC[C@@H](C)[C@@](O)(O2)C(=O)C(=O)N2CCCC[C@H]2C(=O)O[C@H]([C@H](C)C[C@@H]2CC[C@@H](OC(=O)NCCOCCOCCOCCOCCOCCOCCOCCOCCC(=O)N3CCc4cc(Cn5nc(-c6ccc7oc(N)nc7c6)c6c(N)ncnc65)ccc4C3)[C@H](OC)C2)C[C@@H](O)[C@H](C)/C=C(\C)[C@@H](O)[C@@H](OC)C(=O)[C@H](C)C[C@H](C)/C=C/C=C/C=C/1C` [RMC-5552]: the “decrease in VAF” value in the series on ctDNA (mean VAF) (67F NSCLC STK11, TSC2, KRAS L19F, 8 mg QW) was “reduction in lesion; 31%”. For the same molecule, the “MR (molecular response)” value with ctDNA (mean VAF) (endometrial PIK3CA, PTEN, TSC2, 8 mg QW) is given as “SD; MR 64%”; with ctDNA (mean VAF) (uterine CaSarc TSC1 LOF, 10 mg single dose, 6 mg QW) it was 91%. Also, the “subjects with molecular response” value in the series with ctDNA (mean VAF) (of 6 subjects with SD as best response and a pathogenic mTOR pathway variant) is given as 3. Also, in the series on ctDNA (mean VAF) (one subject on 12 mg initial dose), the molecular response entry is listed as “effective molecular complete response”. Moreover, the TGI in series [1] (1 mg/kg IP QW) is 64%; in series [1] (3 mg/kg IP QW), 93%; in series [1] (10 mg/kg IP QW), 93%; in series [2] (3 mg/kg IP QW) it was 94%; in series [3] (1 mg/kg IP QW), 79% and 81%; in series [3] (3 mg/kg IP QW), 94% and 96%. Besides, the TGI in series [3] (10 mg/kg IP QW) is 95% and 92%. The tumor regression in series [1] (dose not printed on this line) is recorded as 15% regression; in series [2] (10 mg/kg IP QW) it was 45% regression; in series [4] (3 mg/kg IP QW), 91% regression; in series [4] (10 mg/kg IP QW) it was 94% regression. Besides, the “4EBP3 mRNA expression in whole blood” value in the series on 4EBP3 mRNA expression was “increased from baseline”. Also, the figures for the “Unbound AUC0-last, mean mouse exposure” value in the series “Mouse plasma exposure” (1 mg/kg) and in “Mouse plasma exposure” (3 mg/kg) were 0.021 to 0.084 µM·h and 0.053 to 0.21 µM·h, respectively. Moreover, the “Unbound Cmax, mean mouse exposure” value fell in the range of 2 to 8 nM in “Mouse plasma exposure” (1 mg/kg) and 3.7 to 14.7 nM in “Mouse plasma exposure” (3 mg/kg).
